From publication PMC12340637, “Transport of Small Aliphatic Amines by Polyspecific Solute Carriers: Deciphering Structure–Function Relationships” (ACS Pharmacology & Translational Science, 2025)
Marks after values point to notes of the source that are not given here.

Assays:
OCT2 (SLC22A2) [1] = target: T1, OCT2 (SLC22A2) (Homo sapiens, UniProt O15244); test: in vitro; conditions: pH 7.4
T1 sequence (O15244 1-555): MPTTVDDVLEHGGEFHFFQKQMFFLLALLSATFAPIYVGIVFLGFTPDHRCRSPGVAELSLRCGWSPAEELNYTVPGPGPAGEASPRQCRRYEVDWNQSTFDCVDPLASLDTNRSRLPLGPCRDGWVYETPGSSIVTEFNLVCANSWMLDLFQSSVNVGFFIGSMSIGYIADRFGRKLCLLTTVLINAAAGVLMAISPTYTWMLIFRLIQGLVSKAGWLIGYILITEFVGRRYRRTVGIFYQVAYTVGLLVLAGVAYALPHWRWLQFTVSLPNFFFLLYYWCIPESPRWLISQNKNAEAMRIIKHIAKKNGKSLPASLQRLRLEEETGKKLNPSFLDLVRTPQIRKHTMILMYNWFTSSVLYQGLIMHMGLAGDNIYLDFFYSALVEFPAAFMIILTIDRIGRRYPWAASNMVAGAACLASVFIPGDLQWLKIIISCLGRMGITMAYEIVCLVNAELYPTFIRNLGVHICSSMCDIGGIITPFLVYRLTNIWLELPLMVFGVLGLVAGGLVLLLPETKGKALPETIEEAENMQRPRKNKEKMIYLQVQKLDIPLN

OCT2 (SLC22A2) [2] = target: T1, OCT2 (SLC22A2); test: Cellular uptake into OCT2-overexpressing HEK293 cells vs EV control cells (HPLC-MS/MS); conditions: for K m (±SEM) / v max (±SEM): OCT2, net uptake, Michaelis–Menten; for uptake ratio OCT2 (transporter-overexpressing cells over EV control cells): mean (±SD, N): 2 min, HEK293
OCT3 (SLC22A3) = target: T2, OCT3 (SLC22A3) (Homo sapiens, UniProt O75751); test: Cellular uptake into OCT3-overexpressing HEK293 cells vs EV control cells (HPLC-MS/MS); conditions: for uptake ratio OCT3 (transporter-overexpressing cells over EV control cells): mean (±SD, N): 2 min, HEK293
T2 sequence (O75751 1-556): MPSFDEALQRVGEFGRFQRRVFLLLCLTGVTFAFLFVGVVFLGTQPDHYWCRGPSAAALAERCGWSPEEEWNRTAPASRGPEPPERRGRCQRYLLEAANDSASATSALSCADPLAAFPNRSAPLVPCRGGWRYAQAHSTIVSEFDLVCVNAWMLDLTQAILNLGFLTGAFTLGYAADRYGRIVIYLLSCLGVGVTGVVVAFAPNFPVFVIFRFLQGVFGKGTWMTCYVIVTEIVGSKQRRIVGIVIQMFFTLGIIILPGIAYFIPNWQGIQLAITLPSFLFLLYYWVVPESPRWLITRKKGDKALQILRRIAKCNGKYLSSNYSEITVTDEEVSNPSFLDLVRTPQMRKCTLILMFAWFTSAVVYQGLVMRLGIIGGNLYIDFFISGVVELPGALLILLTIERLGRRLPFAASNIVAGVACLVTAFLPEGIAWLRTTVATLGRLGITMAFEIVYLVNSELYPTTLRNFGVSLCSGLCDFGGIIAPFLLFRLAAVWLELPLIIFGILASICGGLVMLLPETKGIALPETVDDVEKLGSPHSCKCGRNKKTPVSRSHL

OCT1 (SLC22A1) = target: T3, OCT1 (SLC22A1) (Homo sapiens, UniProt O15245); test: Cellular uptake into OCT1-overexpressing HEK293 cells vs EV control cells (HPLC-MS/MS); conditions: for uptake ratio OCT1 (transporter-overexpressing cells over EV control cells): mean (±SD, N): 2 min, HEK293
T3 sequence (O15245 1-554): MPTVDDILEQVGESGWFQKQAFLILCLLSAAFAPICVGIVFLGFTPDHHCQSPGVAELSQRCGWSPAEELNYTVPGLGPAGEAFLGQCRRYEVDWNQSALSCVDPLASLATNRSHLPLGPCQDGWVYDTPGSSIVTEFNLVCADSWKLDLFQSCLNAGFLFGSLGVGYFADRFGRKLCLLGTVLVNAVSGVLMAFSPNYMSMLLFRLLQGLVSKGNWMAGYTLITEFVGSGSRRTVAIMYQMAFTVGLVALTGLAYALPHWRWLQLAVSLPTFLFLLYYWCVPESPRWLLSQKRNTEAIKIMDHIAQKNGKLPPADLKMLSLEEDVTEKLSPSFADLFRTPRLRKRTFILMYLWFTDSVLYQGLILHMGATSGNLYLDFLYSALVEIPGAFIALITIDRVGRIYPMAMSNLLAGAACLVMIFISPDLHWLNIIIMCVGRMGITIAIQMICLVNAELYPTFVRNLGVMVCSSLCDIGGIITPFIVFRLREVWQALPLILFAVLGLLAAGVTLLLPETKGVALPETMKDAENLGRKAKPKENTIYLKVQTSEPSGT

MATE1 (SLC47A1) = target: T4, MATE1 (SLC47A1) (Homo sapiens, UniProt Q96FL8); test: Cellular uptake into MATE1-overexpressing HEK293 cells vs EV control cells (HPLC-MS/MS); conditions: for uptake ratio MATE1 (transporter-overexpressing cells over EV control cells): mean (±SD, N): 2.5 μM substrate, 1 min, 30 mM NH4Cl preincubation, HEK293
T4 sequence (Q96FL8 1-570): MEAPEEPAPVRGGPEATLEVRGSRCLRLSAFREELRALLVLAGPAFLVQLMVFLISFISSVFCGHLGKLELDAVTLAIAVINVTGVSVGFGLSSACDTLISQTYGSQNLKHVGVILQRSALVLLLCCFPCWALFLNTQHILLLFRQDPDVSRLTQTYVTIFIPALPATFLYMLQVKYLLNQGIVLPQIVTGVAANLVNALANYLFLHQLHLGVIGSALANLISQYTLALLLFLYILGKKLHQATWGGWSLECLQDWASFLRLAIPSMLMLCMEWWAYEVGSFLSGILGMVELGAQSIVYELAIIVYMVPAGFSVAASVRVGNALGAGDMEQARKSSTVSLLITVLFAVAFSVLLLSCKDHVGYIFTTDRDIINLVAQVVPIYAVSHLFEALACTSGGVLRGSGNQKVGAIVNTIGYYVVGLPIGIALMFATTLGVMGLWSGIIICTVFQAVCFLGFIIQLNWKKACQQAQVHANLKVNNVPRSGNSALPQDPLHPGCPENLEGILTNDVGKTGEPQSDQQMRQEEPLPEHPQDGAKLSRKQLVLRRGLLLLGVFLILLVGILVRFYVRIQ

MATE2-K (SLC47A2) = MATE2-K (SLC47A2) (Homo sapiens, UniProt Q86VL8); test: Cellular uptake into MATE2-K-overexpressing HEK293 cells vs EV control cells (HPLC-MS/MS); conditions: 2.5 μM substrate, 1 min, 30 mM NH4Cl preincubation, HEK293
Chain of MATE2-K (SLC47A2) (Q86VL8 1-566 isoform Q86VL8-3): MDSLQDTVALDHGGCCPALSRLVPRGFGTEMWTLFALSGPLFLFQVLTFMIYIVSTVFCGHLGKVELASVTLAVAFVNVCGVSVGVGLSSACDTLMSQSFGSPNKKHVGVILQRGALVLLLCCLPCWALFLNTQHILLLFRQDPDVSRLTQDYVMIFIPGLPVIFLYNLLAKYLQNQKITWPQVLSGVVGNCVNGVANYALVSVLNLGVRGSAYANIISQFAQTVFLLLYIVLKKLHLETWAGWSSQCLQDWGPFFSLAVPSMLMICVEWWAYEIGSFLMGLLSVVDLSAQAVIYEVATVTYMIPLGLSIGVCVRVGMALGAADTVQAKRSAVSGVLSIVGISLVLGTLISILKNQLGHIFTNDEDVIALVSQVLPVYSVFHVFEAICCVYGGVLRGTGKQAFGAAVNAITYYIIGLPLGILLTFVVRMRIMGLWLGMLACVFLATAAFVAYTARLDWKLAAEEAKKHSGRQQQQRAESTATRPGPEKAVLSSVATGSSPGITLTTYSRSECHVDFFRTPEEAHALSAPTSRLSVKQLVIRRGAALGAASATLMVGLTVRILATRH

[3] = OCT1, net uptake, Michaelis–Menten
[4] = uptake ratio ≥2 = notable transport
[5] = OCT3, net uptake, Michaelis–Menten
[6] = MATE1, net uptake, Michaelis–Menten

SMILES	K m (±SEM) (OCT2 (SLC22A2) [2])	v max (±SEM) (OCT2 (SLC22A2) [2])	uptake ratio OCT1 (transporter-overexpressing cells over EV control cells): mean (±SD, N) (OCT1 (SLC22A1); 10 μM substrate)	uptake ratio OCT2 (transporter-overexpressing cells over EV control cells): mean (±SD, N) (OCT2 (SLC22A2) [2]; 10 μM substrate)	uptake ratio OCT3 (transporter-overexpressing cells over EV control cells): mean (±SD, N) (OCT3 (SLC22A3); 10 μM substrate)	uptake ratio MATE1 (transporter-overexpressing cells over EV control cells): mean (±SD, N) (MATE1 (SLC47A1))	uptake ratio MATE2K (transporter-overexpressing cells over EV control cells): mean (±SD, N) (MATE2-K (SLC47A2))	also measured
CCCC[C@H](N)CO [(S)-(+)-2-amino-1-hexanol]	39 (±12) μM	786 (±72) ^b pmol/mg protein/min						selectivity ratio at 2 min (OCT2 (SLC22A2) [1]): 1.3; stereoselectivity OCT3 (uptake ratio of the more strongly transported enantiomer divided by that of the other) (OCT3 (SLC22A3); label = favoured enantiomer): 1.3-fold for (S)
CCN(CC)CC [triethylamine]		1053 (±206) pmol/mg protein/min	1.2 (0.1, 4)	5.0 (1.3, 4) ^b	0.8 (0.3, 4)	0.8 (0.2, 3)	1.1 (0.2, 3)	
CCCCCN [amylamine]			1.2 (0.5, 4)	6.7 (3.2, 4) ^a	0.9 (0.3, 4)	0.5 (0.2, 3) ^a	0.8 (0.3, 3)	
NCCCCO [4-amino-1-butanol]	1243 (±938) μM	3103 (±1458) pmol/mg protein/min				1.0 (0.01, 3)	0.9 (0.3, 3)	uptake ratio OCT1 (transporter-overexpressing cells over EV control cells): mean (±SD, N) (OCT1 (SLC22A1); 2.5 μM substrate (§)): 1.1 (0.3, 3); uptake ratio OCT2 (transporter-overexpressing cells over EV control cells): mean (±SD, N) (OCT2 (SLC22A2) [2]; 2.5 μM substrate (§)): 5.4 (1.1, 3) ^a; uptake ratio OCT3 (transporter-overexpressing cells over EV control cells): mean (±SD, N) (OCT3 (SLC22A3); 2.5 μM substrate (§)): 1.1 (0.3, 3)
NCCCCCO [5-amino-1-pentanol]	1260 (±452) μM	14,996 (±2181) pmol/mg protein/min					1.2 (0.6, 5)	K m (±SEM) (OCT1 (SLC22A1); [3]): 132 (±121) μM; v max (±SEM) (OCT1 (SLC22A1); [3]): 135 (±37) pmol/mg protein/min; substrate activity at OCT1 (in words) (OCT1 (SLC22A1); [4]): notable transport; substrate activity at OCT2 (in words) (OCT2 (SLC22A2) [2]; [4]): notable transport; K m (±SEM) (OCT3 (SLC22A3); [5]): 5776 (±2458) μM; v max (±SEM) (OCT3 (SLC22A3); [5]): 5271 (±1641) pmol/mg protein/min; substrate activity at OCT3 (in words) (OCT3 (SLC22A3); [4]): notable transport; K m (±SEM) (MATE1 (SLC47A1); [6]): 1040 (±451) μM; v max (±SEM) (MATE1 (SLC47A1); [6]): 10,761 (±2694) pmol/mg protein/min; substrate activity at MATE1 (in words) (MATE1 (SLC47A1); [4]): notable transport
